Measurements from the SangsterLogP compilation.

Assay: method code SF-HPLC, from DOI: 10.1023/a:1015933504191, PMID: 2122435
Details: pH 7.4

| SMILES | logD |
| --- | --- |
| NC(=O)[C@@H]1CCCN1C(=O)[C@H](Cc1cn(C(=O)OC2CCCCC2)cn1)NC(=O)[C@@H]1CCC(=O)N1 | 0.6 |
| CCCCCCCCOC(=O)n1cnc(C[C@H](NC(=O)[C@@H]2CCC(=O)N2)C(=O)N2CCC[C@H]2C(N)=O)c1 | 1.88 |
| CCCCCCOC(=O)n1cnc(C[C@H](NC(=O)[C@@H]2CCC(=O)N2)C(=O)N2CCC[C@H]2C(N)=O)c1 | 0.71 |
| NC(=O)[C@@H]1CCCN1C(=O)[C@H](Cc1cn(C(=O)OCc2ccccc2)cn1)NC(=O)[C@@H]1CCC(=O)N1 | -0.11 |
| CC(C)COC(=O)n1cnc(C[C@H](NC(=O)[C@@H]2CCC(=O)N2)C(=O)N2CCC[C@H]2C(N)=O)c1 | -0.44 |
| COC(=O)n1cnc(C[C@H](NC(=O)[C@@H]2CCC(=O)N2)C(=O)N2CCC[C@H]2C(N)=O)c1 | -1.88 |

More lines, now with the values ahead:

| logD | SMILES |
| --- | --- |
| 1.82 | CCCCC(CC)COC(=O)n1cnc(C[C@H](NC(=O)[C@@H]2CCC(=O)N2)C(=O)N2CCC[C@H]2C(N)=O)c1 (some centres not stated) |
| 1.2 | CCCC(CCC)OC(=O)n1cnc(C[C@H](NC(=O)[C@@H]2CCC(=O)N2)C(=O)N2CCC[C@H]2C(N)=O)c1 |
| 0.2 | CCC(CC)OC(=O)n1cnc(C[C@H](NC(=O)[C@@H]2CCC(=O)N2)C(=O)N2CCC[C@H]2C(N)=O)c1 |
| -1.3 | CCOC(=O)n1cnc(C[C@H](NC(=O)[C@@H]2CCC(=O)N2)C(=O)N2CCC[C@H]2C(N)=O)c1 |
| -0.47 | CCCCOC(=O)n1cnc(C[C@H](NC(=O)[C@@H]2CCC(=O)N2)C(=O)N2CCC[C@H]2C(N)=O)c1 |
| -0.8 | CC(C)OC(=O)n1cnc(C[C@H](NC(=O)[C@@H]2CCC(=O)N2)C(=O)N2CCC[C@H]2C(N)=O)c1 |
